Measured values published in the NIST ThermoML archive (doi:10.1021/je0504358).

Conditions: Liquid, Twin ebulliometer

O=C1C=CCCC1 [2-cyclohexen-1-one]
Conditions | vapor or sublimation pressure [kPa]
350.4 K | 4.147
353.66 K | 4.786
357.56 K | 5.662
361.48 K | 6.709
366.16 K | 8.095
370.32 K | 9.581
374.97 K | 11.46
379 K | 13.31
380.5 K | 14.06
386.63 K | 17.53
388.4 K | 18.68
391.77 K | 20.95
397.16 K | 25.2
404.53 K | 32.03
407.95 K | 35.56
410.86 K | 39.01
424.23 K | 57.64
445 K | 100.4

CC1CCCCC1=O (stereo unspecified) [2-methylcyclohexanone]
Conditions | vapor or sublimation pressure [kPa]
338.76 K | 3.333
342.2 K | 3.912
348.85 K | 5.267
350.96 K | 5.763
353.34 K | 6.401
355.93 K | 7.129
358.53 K | 7.941
360.73 K | 8.678
363.09 K | 9.543
366.66 K | 10.98
369.65 K | 12.3
372.7 K | 13.79
376.36 K | 15.79
381.72 K | 19.12
384.91 K | 21.37
389.42 K | 24.9
394.59 K | 29.53
398.32 K | 33.29
399.98 K | 35.05
408.17 K | 45.03
411.64 K | 49.98
414 K | 53.52
418.28 K | 60.46
436.94 K | 99.71

CCCCCC=O [hexanal]
Conditions | vapor or sublimation pressure [kPa]
322.27 K | 5.184
325.43 K | 6.001
327.84 K | 6.711
330.22 K | 7.51
333.56 K | 8.713
338.89 K | 10.99
342.12 K | 12.59
347.22 K | 15.55
353.44 K | 19.8
360.11 K | 25.45
366.28 K | 31.91
371.95 K | 38.88
377.98 K | 47.56
402.17 K | 99.72
